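The compound was tested at five concentrations on cells cultured in 96-well plates, with a 48-hour exposure period. TGI: total growth inhibition.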
System: P388/ADR leukemia
Assay: NCI tumour cell line growth inhibition, 48 h

Structure (SMILES) | TGI
COc1cccc2c1[C@H]1CO[C@H]3C4C[C@H](C(=O)O)C([C@@H](C2)N13)N4C (some centres not stated) | 0.652 µM
O=NN(CCCl)C(=O)NC1CCC(=O)NC1=O (configuration not stated) | 399 µM

Reference: PubChem BioAssay (NCI)
